In patent US20030022794A1, “Novel quaternary salts and their use in agricultural formulations” (priority 1997, published 2003):

Key:
Type in all cases: physicochemical
[1] = storage stability on aging, decomposition of the sulfonylurea measured by HPLC
Procedure: To 21.57 g 2-[[[[(4,6-dimethoxy-2-pyrimidinyl)amino]carbonyl]-amino]sulfonyl]-N,N-dimethyl-3-pyridinecarboxamide and 50 mL 1.0 N NaOH in 1400 mL methylene chloride was incrementally added 22.37 g of diisobutylphenoxy ethoxyethyl dimethylbenzyl ammonium chloride (Hyamine 1622, commercially available from Lonza), with several small methylene chloride washes to facilitate transfer. The reaction medium was filtered through a bed of molecular sieves to remove mineral salts and water. Methylene chloride was stripped to recover the white powder. Upon aging for 1 week at 54 C., 9% relative decomposition of the sulfonylurea resulted as measured by HPLC.
Into 7.8 g of epoxidized soybean oil (ESBO) was added with stirring: 1.18 g methyl 3-[[[[(4-methoxy-6-methyl-1,3,5-triazin-2-yl)amino]carbonyl]amino]sulfonyl]-2-thiophenecarboxylate tech (98.1%), 1.31 g of anhydrous diisobutylphenoxy ethoxyethyl dimethylbenzyl ammonium chloride […] (Hyamine 1622, available from Lonza), 0.11 g Ca(OH)2, and 0.03 g calcium acetate. The mixture was aged 3 weeks at 45° C. giving 0% relative decomposition of the sulfonylurea as measured by HPLC.
A solution on 15 g of methyl 2-[[[[(4-methoxy-6-methyl-1,3,5-triazin-2-yl)methylamino]carbonyl]amino]sulfonyl]benzoate tech (95.7%) and 18 g of Na2CO3 in 300 g of CH2Cl2 was treated with 1.5 g of NaOH and stirred 2 h. 8.65 g of benzyl triethyl ammonium chloride was added to the suspension and the mixture stirred overnight. The suspension was filtered and the filtrate stripped of solvent on a rotary evaporator yielding the corresponding sulfonylurea quaternary salt as a viscous yellow oil (15.7 g) using 1 g of the oil, a 20% solution of the quaternary salt was made in triethyl phosphate. Upon aging for 1 week at 54° C., 1% relative decomposition of the sulfonylurea resulted as indicated by HPLC.
A quaternary salt sulfonylurea was prepared using the procedure of Example 3 with 20 g methyl 2-[[[[(4-methoxy-6-methyl-1,3,5-triazin-2-yl)methylamino]carbonyl]-amino]sulfonyl]benzoate, 30 g Na2CO3, 400 g CH2Cl2, 2 g NaOH and 11.5 g benzyl triethyl ammonium chloride. One gram of the resulting orange viscous oil was made up as a 20% solution in triethyl phosphate. Upon aging for 1 week at 54° C., 2% relative decomposition of the sulfonylurea resulted as indicated by HPLC.
(§1) Tetradodecyl ammonium bromide was dissolved in 5 mL of CH2Cl2 and stirred with 3.3 mL of 1 N NaOH. To this was added 1.27 g of N-[[(4,6-dimethoxypyrimidine-2-yl)amino]carbonyl]-1-methyl-4-(2-methyl-2H-tetrazol-5-yl)-H-pyrazole-5-sulfonamide (97.8%) dissolved in 5 mL of CH2Cl2 and stirring continued for 5 min at 25° C. The organic phase was separated, washed with water, dried and the solvent removed tinder vacuum in a rotary evaporator at a maximum of 50° C. The resulting viscous, colorless oil gave an assay of 35% of the corresponding sulfonylurea quaternary salt (vs. 38% theory) using HPLC. This oil was more than-50% soluble in epoxidized soybean oil, methyl caprylate/caprate, and cottonseed oil. 50% solutions of the resultant sulfonylurea quaternary salt in these three solvents were aged 1 week at 54° C., giving 20-45% relative degradation by HPLC analysis.
In a vial was vortexed the following: 0.214 g methyl 2-[[[[[(4,6-dimethoxy-2-pyrimidinyl)amino]carbonyl]amino]sulfonyl]methyl]benzoate (98.3%), 0.192 g of a 25% aqueous solution of tetramethyl ammonium hydroxide, and 4.32 g of water to produce the sulfonylurea quaternary salt. Upon aging the solution at 54° C. for one week, 52% degradation of the sulfonylurea resulted as measured by HPLC.
(§2) Deionized water (5 g) was saturated with 2-[[[[(4,6-dimethoxy-2-pyrimidinyl)amino]carbonyl]amino]sulfonyl]-N,N-dimethyl-3-pyridinencarboxamide tech (500 ppm) and aged at 25° C. for 30 days.

[2] = solubility in organic solvents (epoxidized soybean oil, methyl caprylate/caprate, cottonseed oil)
Procedure: as §1

[3] = saturation of deionized water; settings: tech material
Procedure: as §2

[4] = 20% solution in triethyl phosphate, aging 1 week at 54° C., HPLC

Compound: CCCCCCCCCCCC[N+](CCCCCCCCCCCC)(CCCCCCCCCCCC)CCCCCCCCCCCC.COc1cc(OC)nc(NC(=O)[N-]S(=O)(=O)c2c(-c3nnn(C)n3)cnn2C)n1 [A]
- relative degradation [1]: 20-45%
- solubility [2]: > 50%

Compound: COC(=O)c1ccccc1CS(=O)(=O)[N-]C(=O)Nc1nc(OC)cc(OC)n1.C[N+](C)(C)C [B]
- degradation of the sulfonylurea ([1]; aqueous solution, aging at 54° C. for one week, HPLC): 52%

Compound: COc1cc(OC)nc(NC(=O)NS(=O)(=O)c2ncccc2C(=O)N(C)C)n1 [C, 2-[[[[(4,6-dimethoxy-2-pyrimidinyl)amino]carbonyl]amino]sulfonyl]-N,N-dimethyl-3-pyridinencarboxamide]
- concentration at saturation in deionized water [3]: 500 ppm

Compound: COc1cc(OC)nc(NC(=O)NS(=O)(=O)c2c(-c3nnn(C)n3)cnn2C)n1 [N-[[(4,6-dimethoxypyrimidine-2-yl)amino]carbonyl]-1-methyl-4-(2-methyl-2H-tetrazol-5-yl)-1H-pyrazole-5-sulfonamide]
- solubility (in words) ([2]; in epoxidized soybean oil, methyl caprylate/caprate, and cottonseed oil): practically insoluble

Compound: In situ Quaternary Salt of Methyl 3-[[[[(4-Methoxy-6-Methyl-1,3,5-Triazin-2-yl)Amino]carbonyl]amino]sulfonyl]-2-Thiophenecarboxylate [Example 2]
- relative decomposition of the sulfonylurea ([1]; in situ mixture in epoxidized soybean oil with Ca(OH)2 and calcium acetate, aged 3 weeks at 45° C., HPLC): 0%

Compound: Quaternary Salt of Methyl 2-[[[[(4-Methoxy-6-Methyl-1,3,5-Triazin-0.2-yl)Methylamino]carbonyl]amino]sulfonyl]benzoate [Example 3]
- relative decomposition of the sulfonylurea [1, 4]: 1%

Compound: Quaternary Salt of Methyl 2-[[[[(4-Methoxy-6-Methyl-1,3,5-Triazin-2-yl)Methylamino]carbonyl]amino]sulfonyl]benzoate [Example 4]
- relative decomposition of the sulfonylurea [1, 4]: 2%

Compound: Quaternary salt of 2-[[[[(4.6-Dimethoxy-2-Pyrimidinyl)amino]carbonyl]amino]sulfonyl]-N,N-Dimethyl-3-Pyridinecarboxamide [Example 1]
- relative decomposition of the sulfonylurea ([1]; isolated white powder, aging 1 week at 54 C, HPLC): 9%
